Source: PubChem BioAssay AID608 (Sanford-Burnham Center for Chemical Genomics, 2007)
Calls of active or inactive are those of the source. The rule behind the calls is not given here. Where a SMILES comes first, the peptide text is derived from it.

target: Peptidyl-prolyl cis-trans isomerase FKBP1A (Homo sapiens) (UniProt P62942); test: FKBP12 binders, biophysical, NMR detection (AID 608); settings: NMR binding, purified FKBP12
Sequence (P62942 whole entry, looked up): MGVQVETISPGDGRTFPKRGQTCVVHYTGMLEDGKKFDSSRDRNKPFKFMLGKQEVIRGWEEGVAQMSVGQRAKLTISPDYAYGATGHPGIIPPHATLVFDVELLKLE

Compound | Kd
COc1ccc(NC(=O)CCCC(=O)O)c(OC)c1 | > 4 mM (inactive)
CN1C(=O)C2CC=C(Cl)CC2C1=O (centres undefined) | > 4 mM (inactive)
Nc1n[nH]c(=S)n1-c1ccccc1 | > 4 mM (inactive)
CC(=O)c1ccc(N2C(=O)C(C(C)C)NC2=S)cc1 (centres undefined) | > 4 mM (inactive)
Cc1cc(C)n2nc(N)nc2n1 | > 4 mM (inactive)
c1ccc2sc(CCc3nc4ccccc4s3)nc2c1 | inactive
CC(=O)c1c(C)nc2ccccc2c1N | > 4 mM (inactive)
O=C(Nc1nnc(-c2ccccc2Cl)o1)c1ccco1 | > 4 mM (inactive)
COC(=O)c1cc2cc(N)ccc2s1 | > 4 mM (inactive)
CN(C)CCNC(CC(=O)Nc1ccccc1)C(=O)O (centres undefined) | > 4 mM (inactive)
CC(=O)O[C@@H]1CC2C(C)(CC[C@H](O)C2(C)C)C2CC[C@]3(C)C(=CC(=O)O[C@H]3c3ccoc3)C21C (some centres undefined) | > 4 mM (inactive)
O=C(O)c1cnc2n(c1=O)CCS2 | > 4 mM (inactive)
CC(C)c1c(O)ccc2c1CCC1C(C)(C)CCC[C@]21C (some centres undefined) | > 4 mM (inactive)
CCC(C)C(=O)O[C@H]1[C@H](O)C2C(CN3CC(C)CCC3[C@@]2(C)O)C2C[C@]34O[C@]5(O)C(OC(=O)C(C)(O)C(C)O)CC[C@@]3(C)C5C(OC(C)=O)[C@@H](OC(C)=O)C4[C@@]21O (some centres undefined) | > 4 mM (inactive)
CC1(C)SCC(C(=O)O)N1C=O (centres undefined) | > 4 mM (inactive)
Nc1oncc1-c1ccccn1 | > 4 mM (inactive)
CCc1cccc(C)c1NC(=O)c1cc(C)oc1C | > 4 mM (inactive)
Nc1nc2n(c1C(=O)c1ccccc1)CCC2 | > 4 mM (inactive)
OC/C=C/c1ccc(O)c(O)c1 | > 4 mM (inactive)
CCOC(=O)c1c(C)cc(O)c(C=O)c1O | > 4 mM (inactive)
CCCn1cnc2sc(C(N)=O)c(C)c2c1=O | > 4 mM (inactive)
Cc1nc2ccc(C(=O)N3CCSCC3)cc2s1 | > 4 mM (inactive)
CN1CN(Cc2ccccc2)CN/C1=N/[N+](=O)[O-] | > 4 mM (inactive)

Compound | Kd
O=C(Nc1ccc(OCC(=O)N2CCOCC2)cc1)c1ccccc1F | inactive
C[C@H](CCC(=O)O)[C@H]1CCC2C3C(CC[C@@]21C)[C@@]1(C)CC[C@@H](O)C[C@H]1C[C@@H]3O (some centres undefined) | > 4 mM (inactive)
Nc1ncnc(Nc2ccccc2C(F)(F)F)n1 | > 4 mM (inactive)
O=C(NC12CC3CC(CC(C3)C1)C2)c1cnccn1 | > 4 mM (inactive)
CCn1c(=O)cc(N2CCC3(CC2)OCCO3)[nH]c1=O | > 4 mM (inactive)
Cc1cccc(OCc2nnc(N)s2)c1 | > 4 mM (inactive)
Nc1nonc1-c1nc2ccccc2[nH]1 | > 4 mM (inactive)
OCc1ccc(-n2cccn2)cc1 | > 4 mM (inactive)
COc1cc(OC)c2c(OC)c(-c3ccc4c(c3)OCO4)c(=O)oc2c1 | > 4 mM (inactive)
COc1ccc(-c2cc(=O)c3c(OC)c(OC)c(OC)c(OC)c3o2)cc1OC | > 4 mM (inactive)
CC1(C)C(=O)[C@@H]2C[C@@]3(O)C4=CC(=O)O[C@@H](c5ccoc5)[C@]4(C)CCC3C(C)(C2=O)[C@H]1CC(=O)O (some centres undefined) | > 4 mM (inactive)
Cn1cnnc1SCCCNC(=O)Nc1ncccn1 | > 4 mM (inactive)
S=C(Nc1ccccc1)Nc1nncs1 | > 4 mM (inactive)
O=C(O)c1ccc2[nH]c3c(c2c1)CSCC3 | > 4 mM (inactive)
CCOc1ccc(C(=O)c2ccncc2)cc1 | > 4 mM (inactive)
O=C(O)c1ccc(NC(=O)c2cccs2)cc1 | > 4 mM (inactive)
CC(=O)Nc1cc(C(F)(F)F)ccc1N1CCOCC1 | > 4 mM (inactive)
O=C1C=CC(=O)c2c(O)cccc21 | > 4 mM (inactive)
O=C(O)CCCCCCCCCCCCC1C=CCC1 (centres undefined) | > 4 mM (inactive)
S=C(Cc1cccnc1)N1CCOCC1 | > 4 mM (inactive)
CCOC(=O)C(C)c1n[nH]c(=O)c2ccccc12 (centres undefined) | > 4 mM (inactive)
CCOC12NC(=O)CC(=O)N1C(c1ccccc1)=CS2 (centres undefined) | > 4 mM (inactive)
C/C=C(/C)C(=O)O[C@@H]1Cc2c(ccc3ccc(=O)oc23)OC1(C)C | > 4 mM (inactive)

Compound | Kd
CC(=O)c1cnc(Nc2nc(C)c3ccccc3n2)nc1C | > 4 mM (inactive)
COCCOc1nc2ccccc2nc1C | > 4 mM (inactive)
CC(=O)Nc1nnc(-c2ccc(Cn3c(-c4cscn4)nc4ccccc43)cc2)s1 | inactive
Cc1nc2nc(-c3ccco3)nn2c(C)c1Cl | > 4 mM (inactive)
CC(CC(=O)O)n1cccn1 (centres undefined) | > 4 mM (inactive)
O=C(Nc1ccc(Cl)cc1)N1CCCC1 | inactive
OCc1cccc2nonc12 | > 4 mM (inactive)
O=C(O)CCC(=O)c1cccc2ccccc12 | > 4 mM (inactive)
COc1cc(N)ncn1 | > 4 mM (inactive)
Cc1nn2c3ccccc3nc2n(Cc2ccccc2)c1=O | > 4 mM (inactive)
C/C1=C/CC(C)(C)/C=C/C/C(C)=C/CC1 | > 4 mM (inactive)
Nc1ccnc(C(=O)O)c1 | > 4 mM (inactive)
Cc1cc(NC(=O)CSc2nncn2C)no1 | > 4 mM (inactive)
COC(=O)CCC(C)[C@H]1CCC2C3C(C[C@H](O)[C@@]21C)[C@@]1(C)CC[C@@H](O)C[C@H]1C[C@H]3O (some centres undefined) | > 4 mM (inactive)
O=C(c1ccccc1)N1CCNCC1 | > 4 mM (inactive)
Cc1cc(=O)n2[nH]cnc2n1 | > 4 mM (inactive)
CC1CCc2cc(F)ccc2N1C(=O)c1ccc(=O)[nH]n1 (centres undefined) | > 4 mM (inactive)
Cc1noc(C)c1CSc1nc2ccccc2[nH]1 | 0.157 mM
O=C(c1nc2ccccc2s1)N1CCSCC1 | > 4 mM (inactive)
CN1CN/C(=N\[N+](=O)[O-])N(c2ccccc2)C1 | > 4 mM (inactive)
COC1CC(O[C@H]2CC[C@]3(C=O)C4CC[C@]5(C)C(C6=CC(=O)OC6)CC[C@]5(O)C4CC[C@]3(O)C2)OC(C)C1O (some centres undefined) | > 4 mM (inactive)
COC(=O)CCC(C)C1CCC2C3CCC4C[C@H](O)CC[C@]4(C)C3C[C@H](O)[C@]12C (some centres undefined) | > 4 mM (inactive)
COc1cc(C(=O)O[C@H]2CC[C@@]3(C)[C@@H]4CC[C@H]5[C@]6(O)C[C@H](O)[C@@]7(O)[C@@H](CN8C[C@@H](C)CC[C@H]8[C@@]7(C)O)[C@]6(O)C[C@@]53OC24O)cc(OC)c1OC | > 4 mM (inactive)

Compound | Kd
Cc1cc(S(=O)(=O)N2CCOCC2)ccc1F | > 4 mM (inactive)
NCCc1nc2ccccc2[nH]1 | > 4 mM (inactive)
CN(C)c1oc(-c2ccccc2Cl)nc1C#N | > 4 mM (inactive)
O=C(O)CCc1c[nH]c2ccccc12 | > 4 mM (inactive)
CNC(=O)Nc1cccc(C(F)(F)F)c1 | > 4 mM (inactive)
NC(=O)c1cccc(N2C(=O)C=CC2=O)c1 | > 4 mM (inactive)
NC(=O)CSc1ccc2nnc(-c3ccccc3)n2n1 | > 4 mM (inactive)
CN=C(c1ccc([N+](=O)[O-])cc1)N(C)C | > 4 mM (inactive)
COC(=O)[C@]1(C)CCC[C@]2(C)c3ccc(C(C)C)cc3C(=O)CC12 (some centres undefined) | > 4 mM (inactive)
COc1ccc(-c2c(O)c3c(OC)c4c(cc3oc2=O)OC(C)(C)CC4)cc1 | > 4 mM (inactive)
C=C(C)C1CC=C(CO)CC1 (centres undefined) | > 4 mM (inactive)
Nc1ncnc2c1ncn2C1C[C@H](O)[C@@H](CO)O1 (some centres undefined) | > 4 mM (inactive)
CC(C)(C)c1cc(CN)c(C(=O)O)o1 | > 4 mM (inactive)
COC(=O)CSc1nnc(-c2ccc(C(=O)O)cc2)o1 | > 4 mM (inactive)
O=c1c(O)cccc2cc(O)c(O)c(O)c12 | > 4 mM (inactive)
CC(=O)Nc1sc(C)c(C)c1C(N)=O | > 4 mM (inactive)
O=c1oc2c(O)c(O)cc3c(=O)oc4c(O)c(O)cc1c4c23 | > 4 mM (inactive)
Nc1nc2ncc(CNc3ccc(C(=O)N[C@@H](CCC(=O)O)C(=O)O)cc3)nc2c(=O)[nH]1 | > 4 mM (inactive)
Cc1ccc(NC(=O)CN2C(=O)CSC2=O)cc1 | > 4 mM (inactive)
COC(=O)C[C@@H]1C2(C)C(=O)[C@@H](CC3=C4C=C(OC)O[C@@H](c5ccoc5)[C@]4(C)CCC32)[C@H](O)C1(C)C (some centres undefined) | > 4 mM (inactive)
O=C(O)CNC(=O)c1ccc([N+](=O)[O-])cc1 | > 4 mM (inactive)
Cc1cccc(C)c1N1C(=O)CCC1=O | > 4 mM (inactive)
O=C(O)CCn1c(=O)oc2ccccc21 | > 4 mM (inactive)

Compound | Kd
CCN1CCC(NC2CCC(O)CC2)CC1 (centres undefined) | > 4 mM (inactive)
CC(=O)OC(C)(C)[C@@H]1Cc2cc3ccc(=O)oc3cc2O1 | > 4 mM (inactive)
Cc1sc(N)c(C(N)=O)c1C | > 4 mM (inactive)
Nc1ccc2[nH]ccc2c1 | > 4 mM (inactive)
O=C1CCC([N+](=O)[O-])C(c2ccccc2F)N1 (centres undefined) | > 4 mM (inactive)
Cc1cc(C)cc(C(=O)n2cnnc2N)c1 | > 4 mM (inactive)
O=C(O)/C=C/c1ccc(O)c(O)c1 | > 4 mM (inactive)
O=c1[nH]cnc2c1nnn2Cc1ccccc1 | > 4 mM (inactive)
COc1ccc(/C=N/n2cn[nH]c2=S)cc1 | > 4 mM (inactive)
CCC(CO)NC(=O)c1snnc1C (centres undefined) | > 4 mM (inactive)
O=S(=O)(N1CCOCC1)n1cnc2ccccc21 | inactive
CC(=O)c1c(C)nn(CC(=O)O)c1C | > 4 mM (inactive)
CC(=O)NC12CC3CC(CC(O)(C3)C1)C2 | > 4 mM (inactive)
O=C(NCc1ccccc1)c1ccc[n+]([O-])c1 | > 4 mM (inactive)
Cc1n[nH]c(=O)c2ncn(C)c12 | > 4 mM (inactive)
NC(=O)CNC(=O)c1ccccc1 | > 4 mM (inactive)
OCc1ccccc1CN1CCOCC1 | > 4 mM (inactive)
CC(C)=CCc1c2c(c(O)c3c(=O)c(O)c(-c4ccccc4)oc13)C=CC(C)(C)O2 | > 4 mM (inactive)
CC(=O)N[C@@H](CC(=O)O)C(=O)N[C@@H](CCC(=O)O)C(=O)O (Ac-Asp-Glu-OH) | > 4 mM (inactive)
Nc1ncnc2c1ncn2CCN1CCCCC1 | > 4 mM (inactive)
O=C(Nc1cccc2cccnc12)c1cccnc1 | > 4 mM (inactive)
Cc1cc(C)nc(Nc2n[nH]c(Cc3ccccc3)n2)n1 | > 4 mM (inactive)
